Results from US20230135671A1, “USE OF BIOMARKERS IN THE TREATMENT OF FIBROTIC CONDITIONS” (Boehringer Ingelheim International GmbH, priority 2020, published 2023).

Columns and labels:
[1] = clinical trials (i.a. CAPACITY and ASCEND); cited from earlier work
[2] = test system: lung fibroblasts from patients with IPF; details: cited from earlier work
[3] = test system: 14 Nintedanib-responsive genes; test: Gene set variation analysis (GSVA) of the 14-gene set, INMARK trial, IPF patients; assay type: in vivo, human; details: V5 (12 weeks) vs V2, 150 mg b.i.d., p = 1.35E-05, no significant change with Placebo
Excerpt: (§1) Gene set variance analysis (GSVA): The Bioconductor package Gene Set Variance Analysis version 1.3.2 was applied to score each sample individually for the activity of the 14 genes (LTF, CEACAM6, CTSG, OLFM4, MMP8, CEACAM8, DEFA4, OLR1, SHISA4, ABCA13, EMID1, LMOD1, MPO, and PRTN3). The GSVA function was executed with an expression matrix of the log2 Transcripts Per Million (TPM) with a pseudocount of 0.01 added to each value, the list of 14 genes, and the parameter mx.diff set to true. Statistical differences between the GSVA scores between the different treatment groups were tested using a simple linear model and moderated t-statistics computed by the limma package using an empirical Bayes shrinkage method (Law et al., Genome Biol. 2014 Feb 3;15(2):R29.). Identification of genes altered upon Nintedanib treatment in patients with IPF

[4] = test system: IPF patients; details: multiple clinical trials; cited from earlier work
[5] = test system: 14 Nintedanib-responsive genes; test: GSVA of the 14-gene set, SENSCIS trial, SSc-ILD patients; assay type: in vivo, human; details: at both visits (24 and 52 weeks), no significant change with Placebo
Excerpt: as §1
Following identification of the 14 Nintedanib-responsive genes in the INMARK trial in the context of IPF, expression of these genes was assessed in two additional clinical trials. […] In both of these trials, whole blood samples were prospectively collected and the expression of the 14 said genes was retrospectively analyzed by whole-transcriptome RNA-sequencing. […] Similar effects were observed when the fold changes in expression were calculated in a per-patient fashion (FIG. 8).

[6] = test system: protein-coding genes in whole blood; test: Whole-transcriptome RNA sequencing, differentially expressed genes, INMARK trial, IPF patients; assay type: in vivo, human
Protocol: Blood was sampled into PAXgene RNA tubes (PreAnalytix) and RNA was extracted using the PAXgene Blood RNA kit. Quantity of total RNA was determined by direct absorbance measurement at 260 nm using a spectrophotometer. RNA sequencing libraries were prepared using the Illumina TruSeq Stranded Total RNA Library Prep Kit with Ribo-Zero Globin. Briefly, following removal of ribosomal RNA and globin-encoding mRNA, cleaved RNA fragments were reversely transcribed into first strand cDNA using reverse transcriptase and random primers followed by second strand cDNA synthesis using DNA Polymerase I and RNase H. Strand origin was kept by using Uracil instead of Thymin in the nucleotide mix for […] cDNA synthesis. Following 3′-adenylation and index adapter ligation, cDNA products were purified and enriched by PCR to create the final cDNA library. Library quantity was determined using the Quant-it Pico Green dsDNA reagent and quality was checked by analyzing cDNA fragment size using an Agilent Bioanalyzer 2100 device. Following library dilution to 5 nM, samples were pooled for cluster generation. […]
Quality control: The raw data (single-end read sequences of the captured cDNA fragments) obtained for each sample were assessed for quality using FASTQC v0.11.2. For a successful gene expression analysis of a sample, approximately 50 million reads were required. Reads were mapped to the human reference genome hg38 (GRCh38 Ensembl v. 84) using STAR v2.5.2a. The mapped reads were assessed using RNA-SeQC v1.1.8, whereby mapping statistics (e.g. unique mapping rate, number of detected genes, proportion of reads mapping to protein coding genes) provided the final criteria to decide on usability of the data.
Gene expression intensities were represented as either read counts or TPM values and calculated based on Ensembl v84 gene annotations using subread featureCounts and RSEM version 1.2.31 respectively. Further steps included the use of bamUtil version 1.0.11 and samtools version 1.1 for intermediate calculations such as indexing of bam-files and duplicate read marking. […]

[7] = test system: normal human lung fibroblasts; details: in vitro; cited from earlier work
[8] = test system: 14 Nintedanib-responsive genes; test: Whole blood RNA-sequencing of the 14 genes, SENSCIS trial, SSc-ILD patients; assay type: in vivo, human; details: 24 weeks (V70) and, in some instances, 52 weeks (V90), not following Placebo
Protocol: Blood was sampled into PAXgene RNA tubes (PreAnalytix) and RNA was extracted using the PAXgene Blood RNA kit. Quantity of total RNA was determined by direct absorbance measurement at 260 nm using a spectrophotometer. RNA sequencing libraries were prepared using the Illumina TruSeq Stranded Total RNA Library Prep Kit with Ribo-Zero Globin. […] Library quantity was determined using the Quant-it Pico Green dsDNA reagent and quality was checked by analyzing cDNA fragment size using an Agilent Bioanalyzer 2100 device. […]
Normalization factors to scale the samples based on the raw library sizes were calculated using the weighted trimmed mean of M-values (TMM) method using the default parameters of edgeR’s calcNormFactors function (Robinson and Oshlack, Genome Biol. 2010;11(3):R25.). After these pre-processing steps, the log2 counts per million along with associated weights for each observation were then calculated based on the normalized library sizes from the previous step using limma’s voom function (Law et al., Genome Biol. 2014 Feb 3;15(2):R29.). […] Estimates for the mean log2 fold change between follow-up visit at week 12 (wk12) and baseline (bl) in each treatment arm was calculated as
Following identification of the 14 Nintedanib-responsive genes in the INMARK trial in the context of IPF, expression of these genes was assessed in two additional clinical trials. […]

[9] = test system: mouse models of IPF; details: cited from earlier work
[10] = test system: primary human lung fibroblasts from IPF patients; details: cited from earlier work
[11] = adj. p-value <0.05, baseline vs week 12

SMILES: Cc1ccc(=O)n(-c2ccccc2)c1 [Pirfenidone, 5-methyl-1-phenyl-2(1H)-pyridone]
- decline of the forced vital capacity (FVC) lung function [1]: efficacy in reducing

SMILES: COC(=O)c1ccc2c(c1)NC(=O)/C2=C(\Nc1ccc(N(C)C(=O)CN2CCN(C)CC2)cc1)c1ccccc1 [Nintedanib, 3-Z-[1-(4-(N-((4-methyl-piperazin-1-yl)-methylcarbonyl)-N-methyl-amino)-anilino)-1-phenyl-methylene]-6-methoxycarbonyl-2-indolinone]
- PDGF-or FGF-2-stimulated migration of lung fibroblasts [2]: attenuated
- change in GSVA score of the 14-gene set [3]: highly significant reduction
- annual loss of lung function [4]: reduce
- change in GSVA score of the 14-gene set [5]: significant reduction
- number of significantly changed genes that were downregulated [6, 11]: 18
- number of significantly changed genes that were upregulated [6, 11]: one
- number of protein-coding genes with significant differences in expression pre- vs post-treatment ([6]; adj. p-value <0.05, baseline vs week 12, 150 mg b.i.d.): 19
- PDGFR-a and-β activation and proliferation of normal human lung fibroblasts [7]: inhibit
- expression of most of the 14 genes [8]: downregulated
- total lung collagen ([9]; IPF mouse models): significant reductions
- lymphocyte and neutrophil counts in the bronchoalveolar lavage fluid ([9]; two different mouse models of IPF): significant reductions
- TGF-β-induced fibroblast to myofibroblast transformation [10]: inhibited
